Source: patent US20260284011A1, “COMPOUNDS FOR RESTORING SUSCEPTIBILITY TO BETA-LACTAM ANTIBIOTICS” (UNIVERSITY OF NOTRE DAME DU LAC, priority 2023, published 2026)

Key:
[1] = system: S. aureus NRS144pCN52RI-Venus; test: Bacterial growth inhibition (OD600) in the fluorescent screening assay; assay type: cell-based, Staphylococcus aureus; conditions: compound at 100 mg/L^−1; OD600 after 2 h
Protocol: The collection of the 100 compounds from the in-silico search was screened against S. aureus NRS144pCN52RI-Venus. The screening strategy was as follows. Bacteria grown to OD600 of 0.25 were exposed concurrently to CBAP (10 mg·L^−1) and the test compound (100 mg·L^−1). Fluorescence was recorded after two hours of incubation. OD600 values were also recorded to identify compounds with inherent antibacterial activity. Compound 1 (Chart 1) emerged—82% diminished fluorescence as an indication of the extent of BlaR inhibition—as a suitable template for structure elaboration. This effort led to the synthesis of several dozen benzimidazole and imidazole compounds. The progression of the iterative design is depicted in Chart 1 for four compounds, culminating in 4. […] The X-ray structures for the complexes of compounds 2 (non-covalent) and 4 (covalent) with the BlaR sensor domain are shown respectively in FIG. 2b (2.0 Å resolution) and FIG. 2c (1.97 Å resolution). Compound 4 makes a covalent bond with the catalytic Ser389 and creates a network of hydrogen bonds with the BlaR active site (FIG. 2c).
Fluorescent assay for screening of BlaR potential inhibitors. A 3-mL portion of lysogeny broth (LB) medium was inoculated with NRS144pCN52RI Venus from frozen stocks and grown overnight at 37° C. The overnight culture was then diluted 1:150 fold with fresh LB containing […] of erythromycin and incubated at 37° C. to an OD600 of 0.3, at which point fluorescence was induced by the addition of CBAP to a final concentration of 10 μg·mL^−1. The culture was aliquoted (99 L) into 96-well plate and 1 L of inhibitor solution (1 mg·mL^−1 in DMSO) was added to each well. Negative control (DMSO without CBAP) and positive control (CBAP without inhibitor) were included. The plate was incubated at 30° C. for 2 h with intermittent shaking. Fluorescence and OD600 measurements were taken by a Cytation-5 multimode microplate reader. Percent inhibition of BlaR and bacterial growth were calculated using absorbance unit (AU) and OD600 values of each sample entered into this formula: […]

MSSA and MRSA strains = test: MIC potentiation, groups of strains; assay type: cell-based, Staphylococcus aureus; conditions: all 40 tested strains
Protocol: Potentiation of Activities of/36-Lactam Antibiotics. Compound 4 was evaluated as an adjuvant for β-lactam antibiotics, per design principles.
MICs were determined by the microdilution broth method following the Clinical & Laboratory Standards Institute (CLSI) guidelines. […] Experiments were performed in triplicate in 96-well plates with 5×10^5 CFU·mL^−1 of bacteria. […] The MIC was the concentration for which bacterial growth was not observed.

MRSA NRS21 = test: Neutropenic thigh infection model; assay type: in vivo, mice; conditions: single agent (4 20 mg·kg^−1 or OXA 40 mg·kg^−1 sc at 1, 9, 17 h), 24 h
Protocol: (§1) The neutropenic thigh infection model in mice is commonly used to test efficacy of antibacterial agents. It is a highly standardized and reproducible assay that evaluates attenuation of bacterial load (and not animal survival) as the endpoint. All current clinical antibiotics are evaluated in this model. The direct injection of bacteria into the thighs of mice mimics a human soft-tissue infection. Prior to infection, mice are made neutropenic by injection of cyclophosphamide to cause the temporary depletion of neutrophils, dampening the immune response and making mice more susceptible to infection. […] The potentiation of activity of β-lactam antibiotics by compound 4 observed in vitro, translates to in vivo activity.
(§2) Animals. Outbred 8-week-old female ICR mice for PK and neutropenic thigh infection studies were purchased from Envigo, Indianapolis, IN. The average weight of the mice for the PK study was 30 g (range 26.1 to 33.1 g); mice in the neutropenic thigh infection weights ranged from 24.2 to 37.7 g and were on average 29 g at the initiation of the study. Mice were housed in polycarbonate shoebox cages (for the PK study) or in disposable cages (for the infection studies) with ¼-inch corncob (The Andersons Inc., Maumee, OH) and Alpha-Dri (Shepherd Specialty Papers, Inc., Richland, MI) bedding with a 12-h light/dark cycle at 72° F. The animals were given food (Teklad 2918 irradiated extruded rodent diet) and water ad libitum. The food and water were autoclaved for the infection studies. All procedures were performed in accordance with and approved by the University of Notre Dame Institutional Animal Care and Use Committee.
(§3) Neutropenic thigh infection studies. Mice (n=5 per group, total of 155 mice) were made neutropenic by injection of cyclophosphamide (Sigma-Aldrich, St. Louis, MO) intraperitoneally at 200 mg·kg^−1 (100 μL of a 60 mg·mL^−1 solution) on days −4 and −1. MRSA NRS21 and FPR3757 were grown in Tryptic Soy Agar and diluted to a final concentration of 10^6 CFU·mL^−1 in Brain-heart Infusion. On day 0, 100 μL of bacterial inoculum was injected intramuscularly into each of the right and left thighs. […] MEM was given intraperitoneally at 50 or 100 mg·kg^−1. […] MEM was given intraperitoneally at 50 or 100 mg·kg^−1 at 1 h, 5 h, 9 h, 13 h, 17 h, and 21 h after infection. […] MEM was prepared in 10% DMSO/20% Tween80/70% saline (0.9% NaCl in sterilized water). A vehicle group was included. At 24 h after infection, the mice were euthanized. Both thighs were dissected aseptically, weighed, and homogenized with two volumes of 1×PBS in a Bullet blender (Next Advance, Inc., Averill Park, NY) at 4° C., followed by centrifugation. […] The number of colonies were counted. […]

MRSA FPR3757 = test: Neutropenic thigh infection model; assay type: in vivo, mice; conditions: MEM 50 mg·kg^−1 ip, 4 20 mg·kg^−1 sc, thighs at 24 h
Protocol: as §1, §2, §3

HFH29568 = test: Time-kill assay; assay type: cell-based, Staphylococcus aureus
Protocol: Time-kill assay. MRSA strains (NRS21, NRS70, NRS382, NRS404, HFH 29568, and HFH 30495) were grown overnight on tryptic soy agar plate. Bacteria were diluted in Muller-Hinton broth containing 2% NaCl to […] CFU·mL^−1. […] For MEM and CPT, cation-adjusted Muller-Hinton broth without 2% NaCl was used. Aliquots were taken at 0, 3, 6, 9, 12, and 24 h and were diluted serially for bacterial counts. The assay was done in triplicate.

Row | SMILES | % Inhibition of bacterial growth [1] [%] | potentiation of the activity of MEM by 4 (MSSA and MRSA strains) | decrease in bacterial counts compared to vehicle-treated mice (MRSA NRS21) | log reduction compared to vehicle (MRSA FPR3757) [log] | log10 decrease in bacterial growth (HFH29568; MEM by itself, at 6 h) [log10] | activity of MEM by itself (HFH29568; by 24 h)
1 | N#Cc1ccc2nc(SCB(O)O)n(Cc3ccc(C(F)(F)F)cc3C(F)(F)F)c2c1 [Compound 4, (((1-(2,4-bis(trifluoro-methyl)benzyl)-6-cyano-1H-benzo[d]imidazol-2-yl)thio)methyl)boronic acid] | 25 | lowering MICs to below resistant level | did not show a statistically significant decrease in bacterial counts | 0.06 |  | 
2 | C[C@@H](O)[C@H]1C(=O)N2C(C(=O)O)=C(S[C@@H]3CN[C@H](C(=O)N(C)C)C3)[C@H](C)[C@H]12 [MEM, meropenem] |  |  |  | 1.2 | 2 | no activity
3 | Cc1onc(-c2ccccc2)c1C(=O)N[C@@H]1C(=O)N2[C@@H]1SC(C)(C)[C@@H]2C(=O)O [OXA, oxacillin] |  |  | did not show a statistically significant decrease in bacterial counts |  |  | 
